Results reported in patent US11465998B2, “Therapeutic compounds and methods of use thereof” (Regents of the University of Minnesota, priority 2019, dated 2022).

Test system: microglial cell line derived from MAL/MyD88 double knockout Mice (NR-9904)
Assay: Cytokine/chemokine induction in MAL/MyD88 double-knockout cell line
Assay type: cell-based
Details: MAL/MyD88 double-knockout murine cell line
Protocol: Cytokine induction by 7e and 7f was examined in murine-derived cell lines. […] The absence of activity was not due to extensive plasma protein binding by re-examining under near-serum-free conditions.
Example 5: High-throughput screens in porcine blood: Curated compound collections were obtained from the Institute for Therapeutics Discovery & Development at the University of Minnesota. Compound transfers from source (80 nL of 10 mM stocks) to assay plates were performed using an Echo 550 acoustic liquid handler (Labcyte, Sunnyvale, Calif.). For most libraries, a target final concentration of 10 μM of compound (in a final volume of 80 μL for the assay described below) was achieved. Compound plates were hermetically sealed and stored at −80° C. until used. Fresh, heparin-anticoagulated porcine blood from healthy animals were obtained under USDA supervision from Midwest Research Swine, LLC (Glencoe, Minn.). 80 μL of hematocrit-enriched porcine blood (low-speed centrifugation, followed by resuspension in DMEM supplemented with 10% fetal bovine serum) was added to compound plates and incubated for 15 h. […] NF-κB translocation was assayed spectrophotometrically using an alkaline phosphatase-specific chromogen (present in HEK-detection medium as supplied by InvivoGen) at 620 nm using a SpectraMax M4 multimode microplate reader (Molecular Devices, Sunnyvale, Calif.). […] Example 7: Human NOD1/2-specific reporter gene assays (NF-κB induction), and TLR-2/-3/-4/-5/-7/-8/-9/STING/ISG counter-screens: The induction of NF-κB was quantified using human TLR-2/-3/-4/-5/-7/-8/-9/NOD-1/NOD-2/STING/ISG-specific, rapid-throughput, liquid handler-assisted reporter gene assays as previously described by us (Wu, W. et al. J. Med. Chem. 2010, 53, 3198-3213; Shukla, N. M. et al. J. Med. Chem. 2010, 53, 4450-4465; Agnihotri, G. et al. J. Med. Chem. 2011, 54, 1490-1510 and Ukani, R. et al. Bioorg. Med. Chem. Lett. 2012, 22, 293-295). […]

Compound	cytokine and chemokine induction
CCCCCc1nc2ccccc2n1-c1csc(C(N)=O)c1 [Compound 7e, 4-(2-Pentyl-1H-benzo[d]imidazol-1-yl)thiophene-2-carboxamide]	abrogation of responsiveness
CCCCCCc1nc2ccccc2n1-c1csc(C(N)=O)c1 [Compound 7f, 4-(2-Hexyl-1H-benzo[d]imidazol-1-yl)thiophene-2-carboxamide]	essentially identical to that of 7e
